Measured values taken from US12054477B2, “Prodrug of pyrrolidone derivatives as glucokinase activator” (HUA MEDICINE (SHANGHAI) LTD., priority 2021, dated 2024).
Like-named read-outs stand apart in the source and are kept apart here.

Columns and labels:
C57BL/6J mice [1] = test: Plasma insulin levels during OGTT; format: in vivo; settings: for Insulin levels at 0 min vs vehicle control group and HMS5552-40 mg/kg group: 0 min (pre-glucose); for Insulin levels at 15 min vs vehicle control group / Insulin levels at 15 min vs corresponding groups of HMS5552: 15 min post-glucose
Method: (§1) 104 C57BL/6J mice were randomly divided into 13 groups according to body weight, 8 mice per group. The first group were administered with vehicle solvent (5 mL/kg, PO) as the control group, other groups were administered with corresponding concentration of test compounds (5 mL/kg, PO). […] The oral glucose tolerance test (OGTT) was performed 1 hour after administration of test compounds. Blood glucose (BG) were measured at −60 min (pre-dose), 0 min (pre-glucose), 15 min, 30 min, 60 min and 120 min after glucose treatment. Blood samples (40 μl) were collected from tail veins at 0 min (pre-glucose), and 15 min (post-glucose) to separate plasma for insulin detection.
(§2) All data was transferred into an Excel spreadsheet. Blood glucose was expressed in mg/dL. All values were expressed as Mean±SEM. The significance of the differences between groups were evaluated by one-way ANOVA or two-way ANOVA followed by Dunnett's multiple comparisons test or Tukey's multiple comparisons test using GraphPad Prism 8. A p value of less than 0.05 is considered statistically significant.

[2] = for Remaining of Test Compound (%): SIF pH about 6.80, 37° C., 2 μM
Method: Preparation of Simulated Intestinal Fluid (SIF): Dissolve 0.136 g KH2PO4 and 0.2 g pancreatin with water and make up the final volume to 20 mL. The pH of the test solution was about 6.80±0.05.
(§3) Then 200 μL of supernatant was pipetted and mixed completely again with 400 μL of cold acetonitrile containing 200 ng/mL tolbutamide (internal standard). • 7) All samples were centrifuged at 4000 rpm, 4° C. for 20 min. • 8) 60 μL of supernatant was pipetted and mixed with 180 μL of ultra-pure water, and the mixture was mixed completely for LC-MS/MS analysis.

Caco-2 cells = test: Bi-directional permeability test using Caco-2 cells; settings: for The average Apparent Permeability Papp A→B: 2 hours, pH 7.40
C57BL/6J mice [3] = test: Oral glucose tolerance test (OGTT), blood glucose; format: in vivo; settings: for AUC0-120min of blood glucose vs vehicle control group / BG values after glucose treatment vs HMS5552-40 mg/kg group / BG values after glucose treatment vs vehicle control group / AUC0-120min of blood glucose vs corresponding groups of HMS5552: OGTT; for AUC0-120min of blood glucose vs vehicle control group: all low, middle, high dose groups; for AUC0-120min of blood glucose vs vehicle control group / BG values after glucose treatment vs HMS5552-40 mg/kg group / BG values after glucose treatment vs vehicle control group / AUC0-120min of blood glucose vs corresponding groups of HMS5552 / BG values at 0 min (pre-glucose) vs vehicle control group: PO; for BG values after glucose treatment vs HMS5552-40 mg/kg group: high dose group (Compound 3 49.1, Compound 6 46.1, Compound 7 48.6 mg/kg); for BG values after glucose treatment vs vehicle control group: high dose group (HMS5552 40 mg/kg; Compound 3 49.1 mg/kg); for AUC0-120min of blood glucose vs corresponding groups of HMS5552: middle and high dose levels (equimolar to 15 and 40 mg/kg HMS5552); for BG values at 0 min (pre-glucose) vs vehicle control group: all treatment groups, 1 hour after administration
Method: as §1, §2

[4] = Stability test of compounds in Simulated Gastric Fluid (SGF); format: in vitro ADME; settings: for Stability in SGF (in words): 24 hours; for Remaining of Test Compound (%): SGF pH about 1.20, 37° C., 2 μM
Method: The pH of the test solution was about 1.20±0.05.
as §3

[5] = Pharmacokinetic studies in male SD rats (IV bolus and gavage); settings: rat, in vivo
Method: Samples were placed on wet ice until centrifugation (within 30 min). […] Supernatant plasma was pipetted, then quickly frozen over dry ice and kept at −60° C. or lower temperature until LC-MS/MS analysis.

[6] = Simulated metabolic test of compounds in Human Intestine S9; format: in vitro ADME; settings: for Remaining of Test Compound (%): HIS9 0.5 mg/mL, 37° C.
Method: Preparation of Phosphate Buffer (PB): Dissolve 73.21 g K2TIPO4·3H2O (AR grade) and 10.78 g KH2PO4 (AR grade) in ultra-pure water to make the final volume to 4000 mL and the final concentration to 100 mM. The pH of the final test solution was adjusted to pH 7.40±0.10 with H3PO4/KOH.
An Apricot automation workstation was used to add 50 μL/well of HIS9 solution to the corresponding wells of all reaction plates (blank, T0, T5, T15, T30, T45, T60).
Using an Apricot automation workstation, 2 μL/well of test compound working solution was added to the corresponding wells of all 96-well reaction plates except the blank (T0, T5, T15, T30, T45, T60).
An Apricot automation workstation was used to add 48 μL/well of PB to the corresponding wells of every reaction plate (Blank, T0, T5, T15, T30, T45, T60) to start the reaction.
The reaction plates were incubated at 37° C., and timer was started. An Apricot automation workstation was used to add 300 μL/well of stop solution (cold acetonitrile containing 200 ng/mL tolbutamide (internal standard)) to the corresponding wells of each reaction plate at its appropriate end time point to terminate the reaction.
Each plate was sealed and shaken for 10 minutes. After shaking, each plate was centrifuged at 4000 rpm and 4° C. for 20 minutes. After centrifugation, 100 μL of supernatant was transferred from each reaction plate to its corresponding bioanaylsis plate, and mixed well with 300 μL ultra-pure water.

[7] = high dose (Compound 3 49.1, Compound 6 46.1, Compound 7 48.6 mg/kg)
[8] = middle dose (Compound 3 18.4, Compound 7 18.2 mg/kg)
[9] = Caco-2, Compound 3 concentration 2.00 μM
[10] = Caco-2, Compound 3 concentration 10.0 μM
[11] = Caco-2, Compound 3 concentration 30.0 μM
[12] = high dose (Compound 6 46.1, Compound 7 48.6 mg/kg)

SMILES	Insulin levels at 0 min vs vehicle control group and HMS5552-40 mg/kg group (C57BL/6J mice [1]; [7])	Insulin levels at 15 min vs vehicle control group (C57BL/6J mice [1]; [7])	Insulin levels at 15 min vs vehicle control group (C57BL/6J mice [1]; [8])	Degradation in SIF (in words) [2]	Insulin secretion and glucose-lowering effect as compared to HMS5552 (in words) (C57BL/6J mice [3])	AUC0-120min of blood glucose vs vehicle control group (C57BL/6J mice [3])	BG values after glucose treatment vs HMS5552-40 mg/kg group (C57BL/6J mice [3])	BG values after glucose treatment vs vehicle control group (C57BL/6J mice [3])	AUC0-120min of blood glucose vs corresponding groups of HMS5552 (C57BL/6J mice [3])	BG values at 0 min (pre-glucose) vs vehicle control group (C57BL/6J mice [3])	Stability in SGF (in words) [4]	Metabolism after intravenous injection (in words) [5]	Metabolism in human intestinal S9 (in words) ([6]; HIS9)	Remaining of Test Compound (%) ([6]; time point 5 min)	Remaining of Test Compound (%) ([6]; time point 15 min)	Remaining of Test Compound (%) ([6]; time point 30 min)	Remaining of Test Compound (%) ([6]; time point 45 min)	Remaining of Test Compound (%) ([6]; time point 60 min)	Insulin levels at 15 min vs corresponding groups of HMS5552 (C57BL/6J mice [1]; [12])	other results
CC(C)C[C@@H](C(=O)Nc1ccn(C[C@@H](O)COC(=O)c2cccnc2)n1)N1CC(Oc2ccccc2Cl)=CC1=O [Compound 3]	significantly higher than the vehicle control group and HMS5552-40 mg/kg group at 0 min	significantly higher than the vehicle control group at 15 min	significantly higher than the vehicle control group at 15 min	extensively degraded in SIF	increased insulin secretion and greater glucose-lowering effect as compared to HMS5552	significantly lower than the vehicle control group, with dose-response relationship	significantly lower than HMS5552-40 mg/kg group at 30 min, 60 min, and 120 min	significantly lower than the vehicle control group at 15 min, 30 min, 60 min, and 120 min	significantly lower than the corresponding groups of HMS5552 (P<0.01)	overall lower than the vehicle control group, with dose-response relationship	stable in SGF for 24 hours	metabolized very rapidly in rats by intravenous injection	well metabolized in human intestinal S9	0%	0%	0%	0%	0%	–	Insulin levels at 15 min vs corresponding groups of HMS5552 (C57BL/6J mice [1]; middle dose (Compound 3 18.4 mg/kg)): significantly higher than the corresponding groups of HMS5552 at 15 min; Average Recovery Rate (%) A→B (Caco-2 cells; [9]): 52.9%; Average Recovery Rate (%) B→A (Caco-2 cells; [9]): 87.1%; The average Apparent Permeability Papp A→B (Caco-2 cells; [9]): 0.02977 10^−6 cm/s; Average Recovery Rate (%) A→B (Caco-2 cells; [10]): 37.5%; Average Recovery Rate (%) B→A (Caco-2 cells; [10]): 81.6%; The average Apparent Permeability Papp A→B (Caco-2 cells; [10]): 0.03187 10^−6 cm/s; Average Recovery Rate (%) B→A (Caco-2 cells; [11]): 82.2%; The average Apparent Permeability Papp A→B (Caco-2 cells; [11]): 0.04322 10^−6 cm/s; clearance ([5]; male SD rats, IV bolus 10 mg/kg, analyte prodrug): 290 mL/min/kg; Tmax ([5]; male SD rats, PO 30 mg/kg, analyte prodrug, read-out: Tmax (median)): 15 min; Time within which completely metabolized and converted into parent drug HMS5552 ([6]; HIS9): ≤ 5 min
CC(C)C[C@@H](C(=O)Nc1ccn(C[C@@H](O)COC(=O)[C@H](C)N)n1)N1CC(Oc2ccccc2Cl)=CC1=O [Compound 6]	significantly higher than the vehicle control group and HMS5552-40 mg/kg group at 0 min	significantly higher than the vehicle control group at 15 min	–	–	increased insulin secretion and greater glucose-lowering effect as compared to HMS5552	significantly lower than the vehicle control group, with dose-response relationship	significantly lower than HMS5552-40 mg/kg group at 15 min, 30 min, 60 min, and 120 min	–	significantly lower than the corresponding groups of HMS5552 (P<0.01)	overall lower than the vehicle control group, with dose-response relationship	–	–	–	–	–	–	–	–	significantly higher than the corresponding groups of HMS5552 at 15 min	–
CC(C)C[C@@H](C(=O)Nc1ccn(C[C@@H](O)COC(=O)[C@@H](N)C(C)C)n1)N1CC(Oc2ccccc2Cl)=CC1=O [Compound 7]	significantly higher than the vehicle control group and HMS5552-40 mg/kg group at 0 min	significantly higher than the vehicle control group at 15 min	significantly higher than the vehicle control group at 15 min	extensively degraded in SIF	increased insulin secretion and greater glucose-lowering effect as compared to HMS5552	significantly lower than the vehicle control group, with dose-response relationship	significantly lower than HMS5552-40 mg/kg group at 15 min, 30 min, 60 min, and 120 min	–	significantly lower than the corresponding groups of HMS5552 (P<0.01)	overall lower than the vehicle control group, with dose-response relationship	stable in SGF for 24 hours	metabolized very rapidly in rats by intravenous injection	well metabolized in human intestinal S9	30.7%	18.8%	7.2%	3.9%	2.7%	significantly higher than the corresponding groups of HMS5552 at 15 min	Remaining of Test Compound (%) ([2]; time point 0 hr): 100.00%; Remaining of Test Compound (%) ([2]; time point 1 hr): 25.13%; Remaining of Test Compound (%) ([2]; time point 2 hr): 3.50%; Remaining of Test Compound (%) ([2]; time point 6 hr): 4.88%; Remaining of Test Compound (%) ([2]; time point 24 hr): 0.00%; Remaining of Test Compound (%) ([4]; time point 0 hr): 100.00%; Remaining of Test Compound (%) ([4]; time point 1 hr): 103.14%; Remaining of Test Compound (%) ([4]; time point 2 hr): 104.44%; Remaining of Test Compound (%) ([4]; time point 6 hr): 102.68%; Remaining of Test Compound (%) ([4]; time point 24 hr): 108.07%; Exposures (Cmax, Cmax ratio, AUC, AUC ratio) when administered orally vs parent drug (in words) ([5]; male, SD, po): comparable to the parent drug HIMS5552; Remaining of Test Compound (%) ([6]; time point 0 min): 100%
CC(C)C[C@@H](C(=O)Nc1ccn(C[C@@H](O)CO)n1)N1CC(Oc2ccccc2Cl)=CC1=O [HMS5552, (S)-2-[4-(2-chloro-phenoxy)-2-oxo-2,5-dihydro-pyrrol-1-yl]-4-methyl-pentanoic acid [1-((R)-2,3-dihydroxy-propyl)-1H-pyrazol-3-yl]-amide, reference compound]	–	–	–	–	–	significantly lower than the vehicle control group, with dose-response relationship	–	significantly lower than the vehicle control group at 30 min, 60 min and 120 min	–	overall lower than the vehicle control group, with dose-response relationship	–	–	–	–	–	–	–	–	–	Insulin levels vs vehicle control group (C57BL/6J mice [1]; HMS5552 groups, 0 min and 15 min): slightly higher than the vehicle control group at 0 min and 15 min, without significant difference
